Where two headings read alike, the source gives them in different places.
How the values were obtained:
mHTT protein = mHTT protein assay (2B7-MW1, Mesoscale Discovery); assay type: cell-based, human; conditions: GM04724 (CAG 70/20) Huntington's disease patient lymphoblast cells, 48 hours, 2B7-MW1 MSD; read-out: HTT Potency - Protein EC50 mHTT (average)
How it was run: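 mHTT levels were read with the 2B7-MW1 antibody pair (N17 and polyQ epitopes) on MSD after 48 h dosing, 10 μM–0.6 nM. Cells were GM04724 HD lymphoblasts (CAG 70/20). A replica plate was read by CTG for cell viability.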

[1] = system: Huntingtin (HTT) transcripts; assay: Quantitative splicing assay (HTT), qPCR; assay type: cell-based; conditions: Homo sapiens, GM04724 (CAG 70/20) Huntington's disease patient lymphoblasts, 24 h
How it was run: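 Read-out is TaqMan qPCR on cDNA, quantifying inclusion of a cryptic exon within HTT intron 49. Cells were Huntington's patient lymphoblasts GM04724 (CAG 70/20), treated for 24 h at 0.15 nM–2.5 uM compound in 0.1% DMSO.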

[2] = system: MDR1-MDCK cell monolayers; assay: MDCK-MDR1 permeability assay (BBB penetration potential); assay type: in vitro ADME; conditions: dog, MDCK-MDR1, 120 min, 5 μM, pH 7.4
Protocol: (§1) Each determination is performed in duplicate. […] Analytical conditions are outlined below.

MDR1 = assay: as above; assay type: in vitro ADME; conditions: dog; for efflux ratio at 120 min, 5 μM: MDCK-MDR1, pH 7.4, MDCK-MDR1: Efflux; for Papp A→B at 120 min, 5 μM: MDCK-MDR1, pH 7.4, MDCK-MDR1: Papp A-B; for Papp B→A at 120 min, 5 μM: MDCK-MDR1, pH 7.4, MDCK-MDR1: Papp B-A
Protocol: as §1

[3] = qPCR HTTex49_50, read-out: HTT Potency - Splicing: E49-50 EC50 (average)
[4] = qPCR cryptic exon 49b inclusion, read-out: HTT Potency - Splicing: E49b EC50 (average)

Row | SMILES | EC50 (mHTT protein) | EC50 [1, 3] | EC50 [1, 4] | MDCK-MDR1: % Recov A-B [2] | MDCK-MDR1: % Recov B-A [2] | efflux ratio at 120 min, 5 μM (MDR1) | Papp A→B at 120 min, 5 μM (MDR1) | Papp B→A at 120 min, 5 μM (MDR1)
1 | COc1cc(-c2ccc(-c3ccc(O[C@@H]4C[C@@]5(C)CC[C@](C)(N5)[C@@H]4F)nn3)c(O)c2)cnn1 (single isomer, unassigned) [157-ENT1] | 16 to 50 nM | 16 to 50 nM | 16 to 50 nM | 77% | 84% | 6 | 6.28 ×10⁻⁶ cm/s | 35.7 ×10⁻⁶ cm/s
2 | Cc1ccc(-c2ccc(-c3ccc(O[C@H]4C[C@@H]5CCC[C@@H](N5)[C@H]4F)nn3)c(O)c2)nn1 (single isomer, unassigned) [75-ENT2] | 501 to 10000 nM | 501 to 10000 nM | 501 to 10000 nM | 82% | 78% | 10 | 3.96 ×10⁻⁶ cm/s | 39.7 ×10⁻⁶ cm/s
3 | Oc1cc(-c2cn[nH]c2)ccc1-c1ccc(O[C@@H]2C[C@H]3CC(F)(F)[C@@H](C2)N3)nn1 (single isomer, unassigned) [46-ENT2] | 101 to 500 nM | 101 to 500 nM | 101 to 500 nM | 72% | 83% | 3 | 14.2 ×10⁻⁶ cm/s | 43.2 ×10⁻⁶ cm/s
4 | Oc1cc(-c2cn[nH]c2)ccc1-c1ccc(O[C@H]2C[C@@H]3CC(F)(F)[C@H](C2)N3)nn1 (single isomer, unassigned) [46-ENT1] | 501 to 10000 nM | 501 to 10000 nM | 501 to 10000 nM | 70% | 88% | 3 | 18.3 ×10⁻⁶ cm/s | 47 ×10⁻⁶ cm/s
5 | Cn1cc(-c2cc(O)c(-c3ccc(O[C@@H]4C[C@H]5CCC[C@H](N5)[C@@H]4F)nn3)c(F)c2)cn1 (single isomer, unassigned) [118-ENT1] | 51 to 100 nM | 51 to 100 nM | 51 to 100 nM | 52% | 80% | 5 | 6.21 ×10⁻⁶ cm/s | 33.3 ×10⁻⁶ cm/s
6 | Cc1ccc(-c2ccc(-c3ccc(O[C@@H]4C[C@H]5CCC[C@H](N5)[C@@H]4F)nn3)c(O)c2)nn1 (single isomer, unassigned) [75-ENT1] | 501 to 10000 nM | 501 to 10000 nM | 501 to 10000 nM | 90% | 92% | 9 | 3.66 ×10⁻⁶ cm/s | 32.5 ×10⁻⁶ cm/s
7 | Oc1cc(-c2cn[nH]c2)c(F)cc1-c1ccc(O[C@H]2C[C@@H]3CCC[C@@H](N3)[C@H]2F)nn1 (single isomer, unassigned) [56-ENT2] | 0.01 to 15 nM | 0.01 to 15 nM | 0.01 to 15 nM | 68% | 79% | 13 | 2.69 ×10⁻⁶ cm/s | 36 ×10⁻⁶ cm/s
8 | Cc1ncc(-c2ccc(-c3ccc(O[C@@H]4C[C@H]5CCC[C@H](N5)[C@@H]4F)nn3)c(O)c2)o1 (single isomer, unassigned) [93-ENT1] | 16 to 50 nM | 16 to 50 nM | 16 to 50 nM | 75% | 78% | 4 | 8.72 ×10⁻⁶ cm/s | 38.7 ×10⁻⁶ cm/s
9 | Oc1cc(-c2cn[nH]c2)ccc1-c1ccc(O[C@H]2C[C@@H]3CC[C@@H](N3)[C@@H]2F)nn1 (single isomer, unassigned) [43-ENT1] | 0.01 to 15 nM | 16 to 50 nM | 16 to 50 nM | 76% | 79% | 7 | 7.44 ×10⁻⁶ cm/s | 48.9 ×10⁻⁶ cm/s
10 | Cn1cc(-c2cc(O)c(-c3ccc(O[C@@H]4C[C@H]5CCC[C@H](N5)[C@@H]4F)nn3)cc2Cl)cn1 (single isomer, unassigned) [120-ENT1] | 16 to 50 nM | 16 to 50 nM | 16 to 50 nM | 29% | 77% | 8 | 3.51 ×10⁻⁶ cm/s | 29.7 ×10⁻⁶ cm/s

Reference: patent US12522597B2, “Methods and compositions for modulating splicing” (Skyhawk Therapeutics, Inc., priority 2019, dated 2026)
